Experimental findings from US20030153056A1, “Glycosyltransferase proteins” (priority 2000, published 2003) are described below.

The target in data set [1] is T1, Brainiac (Drosophila melanogaster, UniProt Q24157).
T1 construct: The full coding region of Brainiac was prepared by PCR using genomic DNA; made in house; host or cells: High Five insect cells (baculovirus vector pVL1393); microsomal fractions
T1 sequence (Q24157 1-325): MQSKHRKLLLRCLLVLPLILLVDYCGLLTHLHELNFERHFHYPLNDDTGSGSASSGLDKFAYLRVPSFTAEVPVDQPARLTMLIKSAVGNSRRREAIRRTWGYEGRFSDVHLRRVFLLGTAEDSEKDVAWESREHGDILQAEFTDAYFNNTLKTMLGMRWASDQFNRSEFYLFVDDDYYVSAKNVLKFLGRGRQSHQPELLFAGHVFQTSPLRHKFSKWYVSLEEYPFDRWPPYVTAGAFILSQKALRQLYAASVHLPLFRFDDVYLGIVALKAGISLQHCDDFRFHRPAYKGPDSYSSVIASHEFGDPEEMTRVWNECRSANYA
In words: Initial analysis of Brainiac glycosyltransferase activity with monosaccharides and four UDP sugar nucleotides. The following applies: panel of monosaccharides, donor UDP-GlcNAc, High Five cell microsomes. Format: biochemical. The procedure:
Brainiac-full was cloned into baculovirus vector pVL1393 (Pharmingen) and expressed in High Five cells. Microsomal fractions were prepared as described above for Fringe but with 0.5% N-octylglucoside as Triton X-100 and related detergents destroyed the activity. Initial analysis of activity was done with five monosaccharides and four donor sugar nucleotides as described in FIG. 5 for Fringe. Assays with the acceptors listed in Table 1 were performed as described for Fringe except no additional detergent was added. Reactions with glycolipid substrates were performed in the presence of 0.5% N-octylglucoside in 50 ul reaction volume containing 10 μg glycolipid.
In the latter case the acceptor sugar was not determined.

The target in data set [2] is T2, Brainiac β1-3-N-acetylglucosaminyltransferase (Drosophila melanogaster, UniProt Q24157).
T2 construct: The full coding region of Brainiac was prepared by PCR using genomic DNA; made in house; host or cells: High Five insect cells (baculovirus vector pVL1393); microsomal fractions
T2 sequence (Q24157 1-325): T1 sequence (Q24157 1-325)
In words: Substrate specificities of Brainiac β1-3-N-acetylglucosaminyltransferase (acceptor panel, microsomal preparations). The following applies: microsomes of pVL-Brainiac infected High Five cells, background of irrelevant construct subtracted, donor UDP-GlcNAc. Format: biochemical.

Data set [3] addresses T3, Fringe (Drosophila melanogaster, UniProt Q24342).
T3 construct: made in house; host or cells: High Five insect cells (baculovirus vector pVL1393); solubilised microsomal fractions
T3 sequence (Q24342 1-412): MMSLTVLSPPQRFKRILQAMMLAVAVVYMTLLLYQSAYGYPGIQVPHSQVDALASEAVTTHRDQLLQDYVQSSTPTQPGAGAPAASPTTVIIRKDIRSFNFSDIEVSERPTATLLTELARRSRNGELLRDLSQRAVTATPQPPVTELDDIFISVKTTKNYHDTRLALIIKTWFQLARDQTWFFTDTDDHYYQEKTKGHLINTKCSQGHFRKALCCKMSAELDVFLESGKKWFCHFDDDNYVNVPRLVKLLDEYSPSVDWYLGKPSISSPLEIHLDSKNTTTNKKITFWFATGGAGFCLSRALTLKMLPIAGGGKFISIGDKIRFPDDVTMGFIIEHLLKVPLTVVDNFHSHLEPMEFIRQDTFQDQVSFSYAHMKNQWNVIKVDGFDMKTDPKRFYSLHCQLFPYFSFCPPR
In words: Fringe glycosyltransferase assay, transfer of 14C-labelled UDP-donor sugars onto acceptor sugars. Format: biochemical. The conditions noted are these: for Acceptor for Fringe, in words: microsomal fractions of High Five cells. As for the experimental part: Fringe-Myc and Fringe-NNN-myc were cloned into baculovirus vector pVL1393 (Pharmingen) and expressed in High Five™ cells. Microsomal fractions were prepared by hypotonic lysis ultracentrifugation and solubilised 1:2 (vol/vol) in 20 mM Cacodylate pH 6.5, 1% Triton-CF54, 5 MM MnCl2 containing Leupeptin and Aprotinin as described previously (Amado et al., 1998). For glycosyltransferase assays, 5 μl of this suspension were added to a total of 50 μl reaction mixture containing 25 mM Cacodylate pH 6.5, 0.25% Triton-CF54, 5 mM MnCl2, 500 mM free sugar, 100 μM UDP-^14C-sugar (1280-2000 cpm/nmol). Reactions were incubated at 37° C. for 45-60 minutes, followed by Dowex-1 anion exchange chromatography and scintillation counting of 50% of the flow-through.
To ask whether Fringe has intrinsic glycosyltransferase activity, Fringe-wt and Fring-NNN were produced by baculovirus-infection of insect cells. Microsomal fractions enriched for Golgi membranes were partially solubilized and assayed for the ability to the expressed proteins to catalyze the transfer of ^14C-labelled UDP-donor sugars onto acceptor sugars. A variety of different donor/acceptor combinations were tested (FIG. 5b).
Enzyme activity was measured by transfer of ^14C-labelled donor sugars (as UDP-conjugates) onto acceptor sugars. In FIG. 5b, average results from two experiments are shown. Donors tested were UDP-Glucose (Glc), UDP-Galactose (Gal), UDP-N-acetyl-Glucosamine (GlcNAc) and N-acetyl-Galactosamine (GalNAc). Acceptors tested were Glucose, Galactose, GlcNAc, GalNAc and Fucose.

Data set [4] has as its target T4, Notch (Drosophila melanogaster, UniProt P07207).
T4 construct: expressed in transfected cells; host or cells: Drosophila Schneider S2 cells, transient transfection, pRmHa3
In words: Delta-AP binding to Notch transfected S2 cells. It counts as cell-based. As for the experimental part: Cell culture and Binding assays: cDNAs for expression in Schneider S2 cells were cloned into pRmHa3. Cells were transiently transfected by the CaPO4 method using 6-8 μg of DNA per well in 6 well plates. Expression was induced by addition of 0.7 mM CuSO4 for 2 days. Conditioned medium was collected from Notch-AP and Delta-AP transfected cells 2 days after induction. AP activity was adjusted to normalise activity levels of Notch-AP or Delta-AP expressed with or without Fringe. Binding was performed as described in Cheng and Flanagan, 1994. In brief, AP-containing supernatants were supplemented with 0.1% NaN3, and incubated 90 min at room temperature. Cells were washed 5 times in HBSS containing 0.05% BSA and 0.1% azide, and lysed in 10 mM Tris pH 8, 1% Triton-X100. Endogenous AP was inactivated by heat treatment for 10 min 60° C. and the lysates clarified by centrifugation. AP activity was measured in 1M Diethanolamine, 1 mM MgCl2, 5 mM para-nitrophenyl phosphate. Bound AP activity was quantified in 96 well plates using a microplate reader and Micromanager software (BioRad). An additional replicate of each transfection was prepared for immunoblot analysis. Lysates were prepared separately for Immunoblot analysis to allow inclusion of protease inhibitors which are not used in the binding assay. To measure interaction of Delta-AP with transiently transfected S2 cells, bound AP activity was quantified in an enzymatic colour reaction. Cells transfected with empty vector were used as a control. […] AP activity is shown in mOD units/minute in cell extracts (replicate experiments are shown in this figure). In this experiment Fringe stimulated binding by over 50 fold. […] However, the assay allows measurement of Fringe-dependent stimulation of Delta-AP binding.

T4 sequence (P07207 53-2703): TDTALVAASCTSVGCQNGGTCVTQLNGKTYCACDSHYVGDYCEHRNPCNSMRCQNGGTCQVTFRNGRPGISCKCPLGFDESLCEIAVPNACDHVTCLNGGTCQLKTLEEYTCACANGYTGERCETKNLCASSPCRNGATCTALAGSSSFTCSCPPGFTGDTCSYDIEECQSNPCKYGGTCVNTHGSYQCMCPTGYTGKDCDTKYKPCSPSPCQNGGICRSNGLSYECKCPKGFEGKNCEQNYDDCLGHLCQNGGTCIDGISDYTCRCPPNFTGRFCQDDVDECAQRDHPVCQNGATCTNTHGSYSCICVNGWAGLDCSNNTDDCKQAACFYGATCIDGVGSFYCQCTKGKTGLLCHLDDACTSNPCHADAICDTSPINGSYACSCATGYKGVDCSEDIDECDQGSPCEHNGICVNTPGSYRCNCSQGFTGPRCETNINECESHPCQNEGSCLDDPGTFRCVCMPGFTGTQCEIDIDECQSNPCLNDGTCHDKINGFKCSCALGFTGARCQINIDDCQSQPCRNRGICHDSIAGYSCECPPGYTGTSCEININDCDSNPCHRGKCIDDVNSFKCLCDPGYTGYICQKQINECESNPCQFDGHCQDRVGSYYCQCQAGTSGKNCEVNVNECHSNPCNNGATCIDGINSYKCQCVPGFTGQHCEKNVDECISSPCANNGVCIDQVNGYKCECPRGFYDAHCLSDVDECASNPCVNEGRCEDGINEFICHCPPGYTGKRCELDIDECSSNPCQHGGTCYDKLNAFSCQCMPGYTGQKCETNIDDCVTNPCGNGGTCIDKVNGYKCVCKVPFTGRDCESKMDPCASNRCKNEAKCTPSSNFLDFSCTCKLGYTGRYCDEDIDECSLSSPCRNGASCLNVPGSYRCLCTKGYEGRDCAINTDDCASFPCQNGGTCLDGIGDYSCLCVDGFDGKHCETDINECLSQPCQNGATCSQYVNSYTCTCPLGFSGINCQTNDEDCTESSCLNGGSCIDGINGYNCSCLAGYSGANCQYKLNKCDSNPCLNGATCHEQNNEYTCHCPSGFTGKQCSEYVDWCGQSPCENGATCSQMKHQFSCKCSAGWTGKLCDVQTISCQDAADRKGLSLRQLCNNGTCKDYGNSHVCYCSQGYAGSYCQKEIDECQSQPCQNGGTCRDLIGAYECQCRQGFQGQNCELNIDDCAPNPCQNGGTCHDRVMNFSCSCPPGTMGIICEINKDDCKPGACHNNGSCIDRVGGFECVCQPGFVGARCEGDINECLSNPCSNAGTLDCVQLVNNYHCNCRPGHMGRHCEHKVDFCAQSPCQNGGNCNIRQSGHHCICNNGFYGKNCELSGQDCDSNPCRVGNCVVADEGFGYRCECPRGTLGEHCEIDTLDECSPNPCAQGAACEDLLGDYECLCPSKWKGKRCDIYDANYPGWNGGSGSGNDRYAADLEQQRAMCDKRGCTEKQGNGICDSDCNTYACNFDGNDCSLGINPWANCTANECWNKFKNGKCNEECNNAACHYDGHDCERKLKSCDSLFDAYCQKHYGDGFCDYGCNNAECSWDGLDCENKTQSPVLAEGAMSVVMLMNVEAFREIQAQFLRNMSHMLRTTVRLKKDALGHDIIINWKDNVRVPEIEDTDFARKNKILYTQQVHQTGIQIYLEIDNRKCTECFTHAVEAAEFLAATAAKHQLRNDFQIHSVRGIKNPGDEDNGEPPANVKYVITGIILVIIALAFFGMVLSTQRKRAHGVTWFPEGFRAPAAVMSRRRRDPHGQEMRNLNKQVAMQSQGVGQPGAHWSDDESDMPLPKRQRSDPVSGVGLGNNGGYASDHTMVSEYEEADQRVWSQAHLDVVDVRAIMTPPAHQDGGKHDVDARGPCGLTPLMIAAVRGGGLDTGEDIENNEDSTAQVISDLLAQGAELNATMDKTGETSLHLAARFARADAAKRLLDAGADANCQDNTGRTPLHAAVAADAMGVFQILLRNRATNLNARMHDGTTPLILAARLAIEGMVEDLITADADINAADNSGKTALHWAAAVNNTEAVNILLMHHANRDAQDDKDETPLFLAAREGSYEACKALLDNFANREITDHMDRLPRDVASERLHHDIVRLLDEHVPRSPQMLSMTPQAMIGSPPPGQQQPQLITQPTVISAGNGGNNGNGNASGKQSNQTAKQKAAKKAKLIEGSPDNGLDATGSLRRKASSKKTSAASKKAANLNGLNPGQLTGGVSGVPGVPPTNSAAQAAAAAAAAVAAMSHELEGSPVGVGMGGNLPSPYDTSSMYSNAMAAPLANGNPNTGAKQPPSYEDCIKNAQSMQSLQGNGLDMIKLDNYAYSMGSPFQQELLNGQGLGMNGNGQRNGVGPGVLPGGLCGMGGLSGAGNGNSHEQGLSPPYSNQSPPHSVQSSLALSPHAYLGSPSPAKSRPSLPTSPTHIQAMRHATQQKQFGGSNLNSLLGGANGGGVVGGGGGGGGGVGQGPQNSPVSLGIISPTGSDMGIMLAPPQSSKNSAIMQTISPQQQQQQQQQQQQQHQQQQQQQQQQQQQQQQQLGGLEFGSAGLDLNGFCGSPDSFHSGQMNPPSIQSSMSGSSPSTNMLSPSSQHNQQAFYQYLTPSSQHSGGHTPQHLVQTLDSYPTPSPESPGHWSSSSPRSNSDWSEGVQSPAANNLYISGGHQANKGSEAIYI

For `OC[C@H]1OC(O)[C@@H](O)[C@@H](O)[C@@H]1O` (stereo partly drawn) [D-Man], the “Acceptor for Brainiac, in words (initial analysis)” value in data set [1] is recorded as “best acceptor”. Further, the “Brainiac activity with substrate” value in data set [2] (substrate 2 mM) was 0.28 nmol/h/mg; in data set [2] (substrate 20 mM) it was 1.70 nmol/h/mg.

For the molecule `C[C@H](O)[C@@H](O)[C@@H](O)[C@H](O)C=O` [Fucose], the “Glycosyltransferase activity of Fringe-wt microsome lysate over background level observed with Fringe-NNN” value in data set [3] (donor UDP-N-acetylglucosamine (GlcNAc), average of two experiments, FIG. 5b) is given as 18 fold.

Consider `C[C@@H]1O[C@@H](Oc2ccc([N+](=O)[O-])cc2)[C@@H](O)[C@H](O)[C@@H]1O` [L-Fucα1-pNph], for which the “Brainiac activity with substrate” value is on record as 0.02 nmol/h/mg in data set [2] (substrate 2 mM) and 0.03 nmol/h/mg in data set [2] (substrate 20 mM). Moreover, the “Acceptor for Fringe, in words” value in data set [3] is “did not act as acceptors”.

Regarding `CO[C@H]1O[C@H](CO[C@H]2O[C@H](CO)[C@@H](O)[C@H](O)[C@@H]2O)[C@@H](O)[C@H](O)[C@@H]1O` [Manα1-6Manα1-Me], the “Brainiac activity with substrate” value in data set [2] (substrate 2 mM) was determined as 0.02 nmol/h/mg; in data set [2] (substrate 20 mM) it was 0.05 nmol/h/mg.

Regarding `CC(=O)N[C@@H]1C(O)O[C@H](CO)[C@@H](O[C@@H]2O[C@H](CO)[C@H](O)[C@H](O)[C@H]2O)[C@@H]1O` (some centres unmarked) [Galβ1-4ManNAc], the “Brainiac activity with substrate” value in data set [2] (substrate 2 mM) was determined as 0.10 nmol/h/mg; in data set [2] (substrate 20 mM), 0.42 nmol/h/mg.

On to `OC[C@H]1O[C@@H](O[C@H]2[C@H](O)[C@H](O)C(O)O[C@@H]2CO)[C@H](O)[C@@H](O)[C@H]1O` (some centres unmarked) [Galβ1-4Man], for which the entries for the “Brainiac activity with substrate” value in data set [2] (substrate 2 mM) and in data set [2] (substrate 20 mM) were 1.48 nmol/h/mg and 8.39 nmol/h/mg, respectively.

For the molecule `OCC1OC(OCC2OC(OCC3OC(O)C(O)C(OC4OC(CO)C(O)C(O)C4O)C3O)C(O)C(OC3OC(CO)C(O)C(O)C3O)C2O)C(O)C(O)C1O` (centres unmarked) [Manα1-3(Manα1-6)Manα1-6(Manα1-3)Man], the “Brainiac activity with substrate” value worked out at 0.09 nmol/h/mg in data set [2] (substrate 2 mM) and 0.45 nmol/h/mg in data set [2] (substrate 20 mM).

Regarding `C[C@@H]1OC(N)[C@@H](O)[C@H](O)[C@@H]1O` (stereo partly drawn) [L-Fucosylamine], the “Brainiac activity with substrate” value in data set [2] (substrate 2 mM) is listed as 0.28 nmol/h/mg; in data set [2] (substrate 20 mM), 0.60 nmol/h/mg.

As to `Cc1cc(=O)oc2cc(O[C@@H]3O[C@H](CO)[C@H](O)[C@H](O)[C@H]3O)ccc12` [Galβ1-MeUmb], the “Brainiac activity with substrate” value is on record as 0.19 nmol/h/mg in data set [2] (substrate 2 mM) and 0.00 nmol/h/mg in data set [2] (substrate 20 mM).

For `C[C@@H]1OC(O)[C@@H](O)[C@H](O)[C@@H]1O` (stereo partly drawn) [L-Fuc], the “Acceptor for Brainiac, in words (initial analysis)” value in data set [1] is “poor substrate”. For the same molecule, the “Brainiac activity with substrate” value is 0.00 nmol/h/mg in data set [2] (substrate 2 mM) and 0.05 nmol/h/mg in data set [2] (substrate 20 mM).

Take `C[C@@H]1O[C@H](Sc2ccc([N+](=O)[O-])cc2)[C@@H](O)[C@H](O)[C@@H]1O` [β-L-Fuc-1-thio-p-Nph]: the “Acceptor for Fringe, in words” value in data set [3] is “did not act as acceptors”.

In the case of `OC[C@H]1O[C@@H](O[C@H]2[C@H](O)[C@@H](O)[C@H](OCc3ccccc3)O[C@@H]2CO)[C@H](O)[C@@H](O)[C@H]1O` [Galβ1-4Glcβ1-Bzl], the “Brainiac activity with substrate” value in data set [2] (substrate 2 mM) is reported as 0.48 nmol/h/mg; in data set [2] (substrate 20 mM), 1.69 nmol/h/mg.

As to Galβ1-4GlcNAc, the “Brainiac activity with substrate” value turned out to be 0.03 nmol/h/mg in data set [2] (substrate 2 mM) and 0.12 nmol/h/mg in data set [2] (substrate 20 mM).

For `Cc1cc(=O)oc2cc(O[C@@H]3O[C@@H](C)[C@@H](O)[C@@H](O)[C@@H]3O)ccc12` [L-Fucα1-MeUmb], the “Brainiac activity with substrate” value in data set [2] (substrate 2 mM) and in data set [2] (substrate 20 mM) was 0.00 nmol/h/mg in each case.

As to `OC[C@H]1O[C@@H](O[C@H]2[C@H](O)[C@@H](O)C(O)O[C@@H]2CO)[C@H](O)[C@@H](O)[C@H]1O` (some centres unmarked) [Galβ1-4Glc], the results for the “Brainiac activity with substrate” value in data set [2] (substrate 2 mM) and in data set [2] (substrate 20 mM) were 0.42 nmol/h/mg and 3.08 nmol/h/mg, respectively.

Take `CC(=O)N[C@H]1[C@H](O[C@H]2[C@@H](O)[C@@H](CO)O[C@@H](O[C@H]3[C@H](O)[C@@H](O)C(O)O[C@@H]3CO)[C@@H]2O)O[C@H](CO)[C@@H](O[C@@H]2O[C@H](CO)[C@H](O)[C@H](O)[C@H]2O)[C@@H]1O` (mixture of isomers) [lacto-N-neo-tetraose]: the “Brainiac activity with substrate” value in data set [2] (substrate 2 mM) was found to be 0.03 nmol/h/mg.

B1: Fringe: Drosophila Fringe protein with a single C-terminal myc-epitope tag (protein, UniProt Q24342 1-412, looked up)
Fringe glycosyltransferase: T3 sequence (Q24342 1-412)
modifications: C-terminal myc tag
Take B1: in data set [4] (Notch-expressing cells co-cultured with Fringe-expressing cells for two days (secreted Fringe)), the “Delta-AP binding, in words” value is “Delta-AP bound at background level”. In data set [4] (co-expressed with Notch in S2 cells), the “Effect on Delta-AP binding, in words” value is listed as “large increase in Delta-AP binding”. In addition, in data set [4] (co-expressed with Notch in S2 cells, FIG. 3b), the “Stimulation of Delta-AP binding” value is “over 50 fold”.
